Measured values: patent US20130022620A1, “ASSAYS AND METHODS PERTAINING TO PRE-AMYLOID INTERMEDIATES” (priority 2011, published 2013)
Positions of bridges follow the written chain, without caps; N, C: chain ends. No end group written: not given here.

Assays:
sRAGE [1] = target: T1, sRAGE (Homo sapiens, UniProt Q15109); assay: Tryptophan fluorescence quenching assay of sRAGE binding; conditions: sRAGE added at different time points of the reaction, 1:1 molar ratio
T1 construct: the soluble extracellular domain of RAGE (sRAGE); made in house; host or cells: Sf9 insect cells (baculovirus)
T1 sequence (Q15109 23-342): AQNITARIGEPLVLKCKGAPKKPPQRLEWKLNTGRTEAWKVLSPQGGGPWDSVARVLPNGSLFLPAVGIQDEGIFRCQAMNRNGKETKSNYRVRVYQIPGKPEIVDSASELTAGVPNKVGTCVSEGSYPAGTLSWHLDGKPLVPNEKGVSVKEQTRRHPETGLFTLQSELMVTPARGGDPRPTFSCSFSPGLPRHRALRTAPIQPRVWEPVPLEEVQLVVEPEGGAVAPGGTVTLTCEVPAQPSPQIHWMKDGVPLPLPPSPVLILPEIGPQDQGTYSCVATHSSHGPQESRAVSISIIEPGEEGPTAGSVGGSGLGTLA
From the text: The quenching of tryptophan fluorescence indicates binding. Fluorescence measurements were made at right angle in a […] dual path length quartz cuvette, using a Photon Technology International fluorescent spectrometer (280 nm excitation and 350 nm emission). Background fluorescence from buffer and IAPP peptides were negligible. The fluorescence quantum yield reported for each time point is an average of 20 reads over 20 seconds (2.5 nm bandwidth and 1 second integration time). Final solution conditions contained 16 mM tris HCl (pH 7.4).

h-IAPP = target: T2, h-IAPP (Homo sapiens, UniProt P10997); conditions: I26P point mutant; Fanling et al. 2010; cited from earlier work
T2 sequence (P10997 34-70 limits assumed): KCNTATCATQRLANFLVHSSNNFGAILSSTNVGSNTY

rat INS-1 β-cells = assay: AlamarBlue cell viability assay of β-cells; type: cell-based
Method: Transformed rat insulinoma-1 (INS-1) β-cells (which express RAGE) are a pancreatic beta cell line commonly used for studies of h-IAPP induced toxicity. INS-1 cells were grown in RPMI 1640 supplemented with 10% fetal bovine serum (FBS), 11 mM glucose, 10 mM Hepes, 2 mM L-glutamine, 1 mM sodium pyruvate, 50 μM β-mercaptoethanol, 100 U/ml penicillin, and […] streptomycin. Cells were maintained at 37° C./5% CO2.
Cyto-toxicity was measured by AlamarBlue assay. INS-1 β-cells were seeded at a density of 30,000 cells per well in 96-well plates and cultured for 24 hours prior to stimulation with IAPP. Human and rat IAPP were dissolved and incubated in 16 mM tris HCl (pH 7.4, 25° C.) prior to cell stimulation. AlamarBlue was diluted ten-fold in culture media and cells were incubated for 5 hours at 37° C. Fluorescence (excitation 530; emission 590 nm) was measured on a Beckman Coulter DTX880 fluorescent plate reader. Values calculated were relative to those of control cells treated with buffer only. All values represent means±SEM (n=3).
Changes in cell morphology were examined by light microscopy to provide a second method of evaluating cell viability. Transformed rat INS-1 beta cells were photographed immediately prior to assessment of toxicity by Alamar blue cell viability assays. Images were taken using an Olympus BX-61 light microscope.

[2] = Thioflavin-T kinetics and TEM of amyloid formation by IAPP peptides; type: physicochemical
Method: Thioflavin-T fluorescence was used to monitor the time course of h-IAPP amyloid formation in the presence and absence of sRAGE. To identify which form(s) of h-IAPP interact with RAGE, sRAGE was added to h-IAPP at various time points during the h-IAPP amyloid formation reaction. Aliquots of the reaction mixture were analyzed by adding 100 uL aliquots of the amyloid formation reaction to 96-well plates containing 8 uL of 60 uM thioflavin-T solution at various incubation times after initiation of the amyloid formation reaction. Fluorescence was measured using a Beckman Coulter DTX880 fluorescent plate reader (excitation: 445 nm and emission: 485 nm). Final solution conditions contained 16 mM tris HCl and […] thioflavin-T (pH 7.4). […] All values represent means±SEM (n=3).
Transient kinetic species of h-IAPP were characterized by TEM. TEM images confirm the presence or absence of amyloid which were indicated by thioflavin-T fluorescence. Aliquots (4 μl) were removed from the reaction mixtures monitored by thioflavin-T assays, placed on a carbon-coated 200-mesh copper grid and negatively stained with saturated uranyl acetate. The samples were imaged with a Philips CM12 transmission electron microscope at the New York University electron microscopy core facility. Final solution conditions contained 16 mM tris HCl (pH 7.4).

sRAGE [3] = target: T1, sRAGE; assay: Difference CD of IAPP peptides with sRAGE; type: binding; conditions: end point of the reactions
Method: CD measurements of IAPP, sRAGE and IAPP/sRAGE reactions were taken at various incubation times. Far-UV CD experiments monitor the development of secondary structure of h-IAPP species and give insight into the conformational requirement for IAPP/RAGE-binding. All CD experiments were performed on an Applied Photophysics circular dichroism spectrophotometer by directly transferring 300 μL of peptide solution from kinetic assays into a 0.1 cm quartz cuvette a few minutes prior to data collection. The CD spectra for sRAGE and tris HCl buffer was subtracted from all RAGE/IAPP mixtures. The final far-UV CD data was collected over the range of 190 to 260 nm. Final solution conditions contained 16 mM tris HCl (pH 7.4).

[4] = Ser-20 substitution; Cao et al. 2011; cited from earlier work

| Substance | binding to sRAGE (tryptophan fluorescence quenching) (sRAGE [1]) | inhibition of h-IAPP amyloid formation (h-IAPP) | toxicity by itself (rat INS-1 β-cells; 40 uM, pH 7.4 25° C.) | effect of the amyloid inhibitor on duration of h-IAPP toxicity (rat INS-1 β-cells; 1:1 mixture with 40 uM h-IAPP) | amyloid formation (thioflavin-T) ([2]; peptide by itself) | interaction with sRAGE (difference CD) (sRAGE [3]) | lag phase and rate of amyloid formation [4] | onset and duration of toxicity compared to wild type (rat INS-1 β-cells; side-by-side with kinetics, 20 uM for the Ser-20 mutants) | rate of aggregation compared to wild type ([2]; 20 uM, pH 7.4 25° C.) |
| --- | --- | --- | --- | --- | --- | --- | --- | --- | --- |
| I26P-IAPP: I26P point mutant of h-IAPP, inhibitor of h-IAPP amyloid formation (KCNTATCATQRLANFLVHSSNNFGAPLSSTNVGSNTY-NH2; disulfide 2-7; N-terminus assumed; SMILES CC(C)C[C@H](NC(=O)[C@H](CCCNC(=N)N)NC(=O)[C@H](CCC(N)=O)NC(=O)[C@@H](NC(=O)[C@H](C)NC(=O)[C@@H]1CSSC[C@H](NC(=O)[C@@H](N)CCCCN)C(=O)N[C@@H](CC(N)=O)C(=O)N[C@@H]([C@@H](C)O)C(=O)N[C@@H](C)C(=O)N[C@@H]([C@@H](C)O)C(=O)N1)[C@@H](C)O)C(=O)N[C@@H](C)C(=O)N[C@@H](CC(N)=O)C(=O)N[C@@H](Cc1ccccc1)C(=O)N[C@@H](CC(C)C)C(=O)N[C@H](C(=O)N[C@@H](Cc1c[nH]cn1)C(=O)N[C@@H](CO)C(=O)N[C@@H](CO)C(=O)N[C@@H](CC(N)=O)C(=O)N[C@@H](CC(N)=O)C(=O)N[C@@H](Cc1ccccc1)C(=O)NCC(=O)N[C@@H](C)C(=O)N1CCC[C@H]1C(=O)N[C@@H](CC(C)C)C(=O)N[C@@H](CO)C(=O)N[C@@H](CO)C(=O)N[C@H](C(=O)N[C@@H](CC(N)=O)C(=O)N[C@H](C(=O)NCC(=O)N[C@@H](CO)C(=O)N[C@@H](CC(N)=O)C(=O)N[C@H](C(=O)N[C@@H](Cc1ccc(O)cc1)C(N)=O)[C@@H](C)O)C(C)C)[C@@H](C)O)C(C)C) | No binding was detected | potent inhibitor of h-IAPP amyloid formation | is not toxic by itself | increases the duration of toxicity | does not form amyloid | does not interact |  |  |  |
| S20G-IAPP: S20G mutation of human IAPP, SEQ ID NO: 3 (KCNTATCATQRLANFLVHSGNNFGAILSSTNVGSNTY-NH2; disulfide 2-7; N-terminus assumed; SMILES CC[C@H](C)[C@H](NC(=O)[C@H](C)NC(=O)CNC(=O)[C@H](Cc1ccccc1)NC(=O)[C@H](CC(N)=O)NC(=O)[C@H](CC(N)=O)NC(=O)CNC(=O)[C@H](CO)NC(=O)[C@H](Cc1c[nH]cn1)NC(=O)[C@@H](NC(=O)[C@H](CC(C)C)NC(=O)[C@H](Cc1ccccc1)NC(=O)[C@H](CC(N)=O)NC(=O)[C@H](C)NC(=O)[C@H](CC(C)C)NC(=O)[C@H](CCCNC(=N)N)NC(=O)[C@H](CCC(N)=O)NC(=O)[C@@H](NC(=O)[C@H](C)NC(=O)[C@@H]1CSSC[C@H](NC(=O)[C@@H](N)CCCCN)C(=O)N[C@@H](CC(N)=O)C(=O)N[C@@H]([C@@H](C)O)C(=O)N[C@@H](C)C(=O)N[C@@H]([C@@H](C)O)C(=O)N1)[C@@H](C)O)C(C)C)C(=O)N[C@@H](CC(C)C)C(=O)N[C@@H](CO)C(=O)N[C@@H](CO)C(=O)N[C@H](C(=O)N[C@@H](CC(N)=O)C(=O)N[C@H](C(=O)NCC(=O)N[C@@H](CO)C(=O)N[C@@H](CC(N)=O)C(=O)N[C@H](C(=O)N[C@@H](Cc1ccc(O)cc1)C(N)=O)[C@@H](C)O)C(C)C)[C@@H](C)O; listed as Homo sapiens) |  |  |  |  |  |  | abolishes the lag phase and increases the rate of amyloid formation | faster onset and shorter duration of toxicity compared to wild type | faster rate of aggregation |
